4 compounds from US6359168B1, “Compounds derived from menthol and use as refreshing agent” (Firmenich SA, priority 1998, dated 2002) can be followed below.

Holding throughout (format): in vivo, human
Assay [1] deals with expert tasters. In words: Chewing gum compared by expert tasters under blind conditions. To be noted: 0.4 parts by weight in chewing gum. Here is the method: Chewing gum was prepared from a Cafosa Navada Plus T 413-01chewing-gum base (18 parts by weight) (source: Cafosa Gum Products Technology, Barcelona, Spain), sugar (60 parts by weight, glucose (20 parts by weight) and glycerol (0.5 parts by weight). 0.8 parts by weight of citric acid and 1 part by weight of lemon flavouring according to the formula given in Example 8 were then added to this mixture. Under blind conditions, expert tasters then compared this chewing-gum base, without any additives, with chewing gums of the same composition to which certain compounds according to the invention had been added.

Assay [2] has as its system expert flavourists. In words: Gelatin-based grapefruit confectioneries compared by expert flavourists under blind conditions. The following applies: 0.05% by weight in gelatin-based grapefruit confectionery. As for the experimental part: By a method which is known per se, grapefruit-flavoured confectioneries were prepared from 30 g gelatin, 175 g water, 150 g sugar and 200 g glucose. We then added 0.8% citric acid and 0.08% of a grapefruit flavouring of the formula given in Example 6. Under blind conditions, expert flavourists then compared this base preserve, without any additives, with preserve of the same composition to which certain compounds according to the invention had been added.

In another assay the test system is buccal mucosae. The experiment in a line: Taste and cooling effect of the compound when tasted.
Assay [3] concerns expert flavourists. In words: Lemon sorbets compared by expert flavourists under blind conditions. To be noted: 0.05% by weight in lemon sorbet. Here is the method: Lemon sorbets were prepared from the following ingredients using conventional techniques: 0.5% citric acid and 0.01% of lemon flavouring of the following formula were then added: Under blind conditions, expert flavourists then compared this lemon sorbet, without any additives, with sorbets of the same composition to which certain compounds according to the invention had been added.

Assay [4] concerns expert flavourists. In words: Grapefruit-flavoured sweets compared by expert flavourists under blind conditions. The following applies: 0.05% in grapefruit-flavoured sweets. Here is the method: Grapefruit-flavoured sweets were prepared from boiled sugar, 1% citric acid, and 0.05% of a grapefruit flavouring of the following formula: Under blind conditions, expert flavourists then compared these sweets, without any additives, with sweets of the same composition to which certain compounds according to the invention had been added.

The test system of assay [5] is expert tasters. In words: Orange drink compared by expert tasters under blind conditions. To be noted: 0.003% in orange drink. Here is the method: An orange-flavoured drink was prepared from a 65° Brix syrup which had been diluted to 10%, acidified with 1.5% citric acid and then flavoured with 0.01% of an orange flavouring of the following formula: Under blind conditions, expert tasters then compared this base drink, without any additives, with drinks of the same composition to which certain compounds according to the invention had been added.

In the case of `COCCOCC(=O)O[C@@H]1C[C@H](C)CC[C@H]1C(C)C` [(1R,2S,5R)-3-menthyl 3,6-dioxaheptanoate], the freshness result was “prolonged freshness” in the assay on expert tasters [1] and “the same freshness effect” in the assay on expert flavourists [2].

As for `CC(C)[C@@H]1CC[C@@H](C)C[C@H]1OC(=O)COCCO` [(1R,2S,5R)-3-menthyl (2-hydroxyethoxy)acetate], the cooling effect result with buccal mucosae was “immediately and intensely cooling”.

Consider `COCC(=O)O[C@@H]1C[C@H](C)CC[C@H]1C(C)C` [(1R,2S,5R)-3-menthyl methoxyacetate, (1R,2S,5R)-3-methyl methoxyacetate], for which the freshness result with expert tasters [1] is given as “prolonged freshness”; with expert flavourists [3], “pleasant freshness in the mouth”; with expert flavourists [2], “leaves a freshness in the mouth”; in the assay on expert flavourists [4] it was “yielded a freshness”; in the assay on expert tasters [5], “sensation of freshness which develops as an after-taste”.

As for `CC(C)[C@@H]1CC[C@@H](C)C[C@H]1OC(=O)COCCOCCOCCO` [(1R,2S,5R)-menthyl 11-hydroxy-3,6,9-trioxaundecanoate], the cooling effect entry with buccal mucosae was “develops more particularly on the tongue and in the throat”.
